Source: patent US9845319B2, “Amide substituted thiazoles as modulators of RORyt” (Janssen Pharmaceutica NV, priority 2014, dated 2017)

Assays:
[1] = biological target: T1, human RORγt ligand binding domain (RORγt LBD) (Homo sapiens, UniProt P51449); test: RORγt ThermoFluor assay; conditions: estimated from thermal shift concentration response
T1 construct: His-tag (N); TurboTEV protease cleavage site (ENLYFQG) (N); made in house; host or cells: E. coli (pHIS1, a modified pET expression vector)
T1 sequence (P51449 with tags, fused parts or gaps): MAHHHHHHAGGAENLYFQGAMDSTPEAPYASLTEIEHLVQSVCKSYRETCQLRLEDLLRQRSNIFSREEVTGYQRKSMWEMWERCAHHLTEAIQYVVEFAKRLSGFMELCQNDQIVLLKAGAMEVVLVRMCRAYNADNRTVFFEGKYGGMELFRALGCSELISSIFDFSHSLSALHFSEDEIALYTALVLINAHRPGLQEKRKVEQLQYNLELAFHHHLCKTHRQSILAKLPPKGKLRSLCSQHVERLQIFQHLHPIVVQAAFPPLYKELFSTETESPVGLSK
Procedure: This approach is applicable to a wide variety of systems, and rigorous in theoretical interpretation through quantitation of equilibrium binding constants (KD).
The shift in the melting point described as a ΔTm is proportional to the concentration and affinity of the ligand.
Protein and compound solutions are dispensed into black 384-well polypropylene PCR microplates (Abgene) and overlayed with silicone oil (1 μL, Fluka, type DC 200) to prevent evaporation.
Bar-coded assay plates are robotically loaded onto a thermostatically controlled PCR-type thermal block and then heated at a typical ramp-rate of 1° C./min for all experiments.
Fluorescence was measured by continuous illumination with UV light (Hamamatsu LC6) supplied via fiber optic and filtered through a band-pass filter (380-400 nm; >6 OD cutoff). Fluorescence emission of the entire 384-well plate was detected by measuring light intensity using a CCD camera (Sensys, Roper Scientific) filtered to detect 500±25 nm, resulting in simultaneous and independent readings of all 384 wells. Images were collected at each temperature, and the sum of the pixel intensity in a given area of the assay plate was recorded versus temperature. Reference wells contained RORγt without compounds, and the assay conditions were as follows: • 0.065 mg/mL RORγt • 60 μM 1,8-ANS • 100 mM Hepes, pH 7.0 • 10 mM NaCl • 2.5 mM GSH • 0.002% Tween-20
Project compounds were arranged in a pre-dosed mother plate (Greiner Bio-one) wherein compounds are serially diluted in 100% DMSO by 1:2 from a high concentration of 10 mM over 12 columns within a series (column 12 is a reference well containing DMSO, no compound). The compounds were robotically dispensed directly into assay plates (1×=46 nL) using a Hummingbird capillary liquid handling instrument (Digilab). Following compound dispense, protein and dye in buffer was added to achieve the final assay volume of 3 μL, followed by 1 μL of silicone oil.

full-length human RORγt = biological target: T2, full-length human RORγt (Homo sapiens, UniProt P51449); test: RORγt (full-length human) Reporter Assay, Conditions A; format: cell-based; conditions: for IC50: HEK293T cells, GAL4-DBD-RORγt, luciferase, read-out: RORγt (FL) Reporter Assay A, IC50; for inhibition at 6 µM: read-out: RORγt (FL) Reporter Assay A, % inhibition @ 6 μM, 6 μM compound; for inhibition at 2 µM: read-out: RORγt (FL) Reporter Assay A, % inhibition (* at 2 μM), 2 μM compound concentration (footnote *)
T2 construct: expressed in transfected cells; host or cells: HEK293T, transiently transfected with pCMV-BD-ROR
T2 sequence (P51449 1-497 isoform P51449-2): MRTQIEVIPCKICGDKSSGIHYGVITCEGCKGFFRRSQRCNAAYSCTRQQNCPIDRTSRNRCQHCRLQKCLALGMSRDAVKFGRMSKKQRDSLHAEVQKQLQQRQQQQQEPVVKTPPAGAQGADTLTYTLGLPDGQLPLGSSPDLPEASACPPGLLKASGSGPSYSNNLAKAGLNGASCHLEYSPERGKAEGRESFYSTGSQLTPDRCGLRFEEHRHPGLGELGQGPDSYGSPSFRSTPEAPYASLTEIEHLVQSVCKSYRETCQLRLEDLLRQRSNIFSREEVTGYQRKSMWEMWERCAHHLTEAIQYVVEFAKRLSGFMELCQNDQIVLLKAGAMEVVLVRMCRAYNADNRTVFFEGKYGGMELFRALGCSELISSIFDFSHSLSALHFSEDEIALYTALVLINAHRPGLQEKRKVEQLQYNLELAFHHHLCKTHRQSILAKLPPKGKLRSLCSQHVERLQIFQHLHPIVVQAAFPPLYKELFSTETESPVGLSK
Procedure: After overnight (16 to 20 hours) incubation, media were removed and cells were lysed with 20 μL 1× Passive Lysis Buffer (Promega) for 10-15 minutes. Luminescence was measured using a BMG LUMIstar OPTIMA plate reader, after addition of 75 μL/well firefly luciferase buffer, followed by 75 μL/well Renilla luciferase buffer. To calculate the effect of compounds on RORγt activity, firefly values were normalized against values of DMSO only and values of reference compound at saturating concentration, then further normalized against Renilla signals. IC50s were generated by plotting final Renilla normalized data against compound concentration and percent inhibition was calculated against DMSO control.

| Kd [1] [µM] | IC50 (full-length human RORγt) [µM] | inhibition at 6 µM (full-length human RORγt) [%] | inhibition at 2 µM (full-length human RORγt) [%] | Compound |
| --- | --- | --- | --- | --- |
| 0.0016 | 0.026 | 107 |  | C[C@H](NS(=O)(=O)c1ccc(-c2sc(-c3nnc(CC(C)(C)O)o3)nc2C(=O)N2CCC(F)(F)CC2)c(Cl)c1Cl)C(F)(F)F [Example 3, (S)-2,3-Dichloro-4-(4-(4,4-difluoropiperidine-1-carbonyl)-2-(5-(2-hydroxy-2-methylpropyl)-1,3,4-oxadiazol-2-yl)thiazol-5-yl)-N-(1,1,1-trifluoropropan-2-yl)benzenesulfonamide] |
| 0.016 | 0.057 | 109 |  | C[C@H](NS(=O)(=O)c1ccc(-c2sc(-c3nnc(CC(C)(C)O)o3)nc2C(=O)N2CCC(F)(F)C2)c(Cl)c1Cl)C(F)(F)F [Example 3/1, (S)-2,3-Dichloro-4-(4-(3,3-difluoropyrrolidine-1-carbonyl)-2-(5-(2-hydroxy-2-methylpropyl)-1,3,4-oxadiazol-2-yl)thiazol-5-yl)-N-(1,1,1-trifluoropropan-2-yl)benzenesulfonamide] |
| 0.00059 | 0.023 | 107 |  | C[C@H](NS(=O)(=O)c1ccc(-c2sc(-c3nnc(CC(C)(C)O)o3)nc2C(=O)N2CC(F)(F)C[C@@H]2C)c(Cl)c1Cl)C(F)(F)F [Example 3/2, 2,3-Dichloro-4-(4-((S)-4,4-difluoro-2-methylpyrrolidine-1-carbonyl)-2-(5-(2-hydroxy-2-methylpropyl)-1,3,4-oxadiazol-2-yl)thiazol-5-yl)-N—((S)-1,1,1-trifluoropropan-2-yl)benzenesulfonamide] |
| 0.01 | 0.027 | 107 |  | CCN(CC)C(=O)c1nc(-c2nnc(CC(C)(C)O)o2)sc1-c1ccc(S(=O)(=O)N[C@@H](C)C(F)(F)F)c(Cl)c1Cl [Example 3/3, (S)-5-(2,3-Dichloro-4-(N-(1,1,1-trifluoropropan-2-yl)sulfamoyl)phenyl)-N,N-diethyl-2-(5-(2-hydroxy-2-methylpropyl)-1,3,4-oxadiazol-2-yl)thiazole-4-carboxamide] |
| 0.024 | 0.05 |  | 106 | CC(C)(O)Cc1nnc(-c2nc(C(=O)N3CCC(F)CC3)c(-c3ccc(C(O)(C(F)(F)F)C(F)(F)F)c(Cl)c3Cl)s2)o1 [Example 3/4, (5-(2,3-Dichloro-4-(1,1,1,3,3,3-hexafluoro-2-hydroxypropan-2-yl)phenyl)-2-(5-(2-hydroxy-2-methylpropyl)-1,3,4-oxadiazol-2-yl)thiazol-4-yl)(4-fluoropiperidin-1-yl)methanone] |
| 0.076 | 0.37 | 104 |  | CC(C)(O)Cc1nnc(-c2nc(C(=O)N3CC[C@H](F)C3)c(-c3ccc(C(O)(C(F)(F)F)C(F)(F)F)c(Cl)c3Cl)s2)o1 [Example 3/6, (S)-(5-(2,3-Dichloro-4-(1,1,1,3,3,3-hexafluoro-2-hydroxypropan-2-yl)phenyl)-2-(5-(2-hydroxy-2-methylpropyl)-1,3,4-oxadiazol-2-yl)thiazol-4-yl)(3-fluoropyrrolidin-1-yl)methanone] |
| 0.081 | 0.29 | 103 |  | C[C@H](NS(=O)(=O)c1ccc(-c2sc(-c3nnc(CC(C)(C)O)o3)nc2C(=O)N2CCC(F)(F)CC2)c(OC(F)F)c1F)C(F)(F)F [Example 3/7, (S)-3-(Difluoromethoxy)-4-(4-(4,4-difluoropiperidine-1-carbonyl)-2-(5-(2-hydroxy-2-methylpropyl)-1,3,4-oxadiazol-2-yl)thiazol-5-yl)-2-fluoro-N-(1,1,1-trifluoropropan-2-yl)benzenesulfonamide] |
| 0.0015 | 0.019 |  | 103 | CC1CCN(C(=O)c2nc(-c3nnc(C(C)(C)O)o3)sc2-c2ccc(S(=O)(=O)N[C@@H](C)C(F)(F)F)c3ccccc23)CC1 [Example 4, (S)-4-(2-(5-(2-Hydroxypropan-2-yl)-1,3,4-oxadiazol-2-yl)-4-(4-methylpiperidine-1-carbonyl)thiazol-5-yl)-N-(1,1,1-trifluoropropan-2-yl)naphthalene-1-sulfonamide] |
| 0.00038 | 0.026 | 105 |  | C[C@H](NS(=O)(=O)c1ccc(-c2sc(-c3nnc(C(C)(C)O)o3)nc2C(=O)N2CCCC[C@@H]2C)c(Cl)c1Cl)C(F)(F)F [Example 4/3, 2,3-Dichloro-4-(2-(5-(2-hydroxypropan-2-yl)-1,3,4-oxadiazol-2-yl)-4-((S)-2-methylpiperidine-1-carbonyl)thiazol-5-yl)-N—((S)-1,1,1-trifluoropropan-2-yl)benzenesulfonamide] |
| 0.012 | 0.052 | 110 |  | C[C@H](NS(=O)(=O)c1ccc(-c2sc(-c3nnco3)nc2C(=O)N2CCC(F)(F)CC2)c(Cl)c1Cl)C(F)(F)F [Example 4/5, (S)-2,3-Dichloro-4-(4-(4,4-difluoropiperidine-1-carbonyl)-2-(1,3,4-oxadiazol-2-yl)thiazol-5-yl)-N-(1,1,1-trifluoropropan-2-yl)benzenesulfonamide] |
| 0.0063 | 0.023 | 101 |  | CCN(CC(F)(F)F)C(=O)c1nc(-c2nnc(C(C)(C)O)o2)sc1-c1ccc(S(=O)(=O)N[C@@H](C)C(F)(F)F)c(Cl)c1Cl [Example 4/6, (S)-5-(2,3-Dichloro-4-(N-(1,1,1-trifluoropropan-2-yl)sulfamoyl)phenyl)-N-ethyl-2-(5-(2-hydroxypropan-2-yl)-1,3,4-oxadiazol-2-yl)-N-(2,2,2-trifluoroethyl)thiazole-4-carboxamide] |
| 0.037 | 0.17 | 106 |  | CC1CCN(C(=O)c2nc(-c3nnc(C(N)=O)o3)sc2-c2ccc(S(=O)(=O)N[C@@H](C)C(F)(F)F)c3ccccc23)CC1 [Example 5, (S)-5-(4-(4-Methylpiperidine-1-carbonyl)-5-(4-(N-(1,1,1-trifluoropropan-2-yl)sulfamoyl)naphthalen-1-yl)thiazol-2-yl)-1,3,4-oxadiazole-2-carboxamide] |
| 0.12 | 0.28 | 105 |  | CCN(CC)C(=O)c1nc(-c2nnc(C(N)=O)o2)sc1-c1ccc(S(=O)(=O)N[C@@H](C)C(F)(F)F)c(Cl)c1Cl [Example 5/1, (S)-5-(5-(2,3-Dichloro-4-(N-(1,1,1-trifluoropropan-2-yl)sulfamoyl)phenyl)-4-(diethylcarbamoyl)thiazol-2-yl)-1,3,4-oxadiazole-2-carboxamide] |
| 0.00099 | 0.013 |  | 105 | CC[C@H](NS(=O)(=O)c1ccc(-c2sc(-c3nnc(C(C)(C)O)o3)nc2C(=O)N(CC)CC)c(Cl)c1Cl)C(F)(F)F [Example 6, (S)-5-(2,3-Dichloro-4-(N-(1,1,1-trifluorobutan-2-yl)sulfamoyl)phenyl)-N,N-diethyl-2-(5-(2-hydroxypropan-2-yl)-1,3,4-oxadiazol-2-yl)thiazole-4-carboxamide] |
